Columns and labels:
sheep [1] = test: Invasive cardiac hemodynamic measurements in experimental sheep model; format: in vivo
Description: An experimental sheep model, developed for invasive hemodynamic measurements under various conditions, was used to study the potentiating and synergistic effects of inosine on continuous adenosine infusion. The model is described in Tanoue et al., “Ischemic preconditioning reduces unloaded myocardial oxygen consumption in an in-vivo sheep model,” Cardiovascular Research 55: 633-641 (2002) and Xia et al., “Remote preconditioning lessens the deterioration of pulmonary function after repeated coronary artery occlusion and reperfusion,” Canadian Journal of Anesthesia 50: 481-488 (2003), the disclosures of which are incorporated herein by reference in their entireties. A total of twelve animals were studied. Briefly, the sheep were premedicated, anesthetized, intubated, and ventilated with positive pressure ventilation. Electrocardiogram (ECG) was continuously followed. The carotid artery was surgically denuded to place an arterial line for arterial blood pressure (ABP) measurement. Denuding of the jugular vein was performed to place a double or triple lumen central venous line for measurement of central venous pressure (CVP) and fluid and drug administration. A small left thoracotomy was made in the third or fourth intercostal space and the heart suspended in a pericardial cradle. A flow probe (transonic probe) was placed around the pulmonary artery and around the left circumflex coronary artery. A catheter was inserted in the pulmonary artery to determine pulmonary arterial pressure. In addition, 9 animals received a conductance catheter which was positioned in the left and right ventricle and preload-afterload variations were made by occlusion and/or constriction of the caval veins and/or pulmonary artery and/or aorta in order to study myocardial contractility. Regional blood flow measurements were also performed using a colored microsphere injection technique. Each animal served as its own control. The sequence of measurements was always the same: 1) under baseline conditions; 2) under adenosine; 3) 15 minutes stabilization, then new measurements under baseline conditions; 4) measurements under bidosine. From the first three animal experiments, it was determined that adenosine 200 μg/kg/min was the optimal single agent adenosine dose, i.e., the dose ensuring the highest coronary flow (adenosine max). Therefore, all further experiments compared this dose to the BIDOSINE formulation containing 100 μg/kg/min (that is, half adenosine max) adenosine+500 μg/kg/min inosine (A:I ratio of 1:5).

sheep [2] = test: Regional myocardial blood flow by colored microsphere technique in sheep; format: in vivo; details: mean of 9 experiments, after 5 minutes of adenosine or BIDOSINE
Description: Regional blood flows, as well as potential changes in the distribution of coronary flow into different parts of the myocardium, were also studied. This was done by using a colored microsphere technique, essentially as described in Muller et al., “Developmental changes in cerebral autoregulatory capacity in the fetal sheep parietal cortex,” J Physiol. 539(Pt 3):957-67 (2002); Miller et al., “Physiological evidence for arteriovenous anastomoses in the uterine circulation of late-pregnant ewes,” Clin. Exp. Pharmacol. Physiol. 25(2):92-8 (1998); Herijgers et al., “Changes in organ perfusion after brain death in the rat and its relation to circulating catecholamines,” Transplantation 62: 330-335 (1996); and Wouters et al., “Ischemic event characteristics determine the extent of myocardial stunning in conscious dogs,” Basic Res. Cardiol. 91(2):140-6 (1996), the disclosures of which are incorporated herein by reference in their entireties. Briefly, colored microspheres were injected at baseline, and after 5 minutes of adenosine or BIDOSINE administration. At necropsy, tissue was digested and the number of colored microspheres per gram of wet weight in a tissue sample determined. By comparing these numbers with the number of microspheres in a reference sample drawn from the aorta at a predetermined rate, we could quantify the absolute flow rate to the tissue sample at the moment when the microspheres were injected. The statistical analysis was performed by the same methodology as for the hemodynamic parameters. Values are expressed in ml/min/g tissue (wet weight). LV=left ventricle; RV=right ventricle; endo=endocardial half; epi=epicardial half. As in Table 2, the numbers reflect the sequence of experimental conditions, as follows: 1) under baseline conditions; 2) under adenosine; 3) 15 minutes stabilization, then new measurements under baseline conditions; 4) measurements under bidosine.

male Wistar rats = test: Reperfusion injury after myocardial ischemia in the rat, repeated with 45 minute ischemia; format: in vivo; details: day 30 post ischemia, preliminary
Description: The experiment was repeated with 45 minute period of ischemia, and with the addition of a further BIDOSINE experimental group. The BIDOSINE composition for this additional group comprised adenosine, administered at 0.01 mg/kg/min ( 1/10 its single agent maximally effective dose) with inosine 0.20 mg/kg/min, for an A:I weight ratio of 1:20. Preliminary results (n=5 per group) of this ongoing study are given in Table 5, below, reporting day 30 post ischemia results.

[3] = test system: rat model of spinal cord ischemia; test: Photothrombotic model of spinal cord ischemia in rats, behavioral studies; format: in vivo
Description: BIDOSINE administration was compared to adenosine (0.1 mg/kg/min), administered by continuous i.v. infusion from thirty to sixty minutes after the injury (n=13 in each group). As controls, a group of animals (n=11) received a 60-min IV perfusion of saline solution starting 30 min after the injury. The potential neuroprotective effect of the compound was evaluated by performing various behavioral studies. In these experiments, the photothrombotic model of ischemia was chosen over the occlusion model (aortic clamp), since it better reproduces the pathophysiology of an ischemic insult. The photothrombotic model has the advantages of (i) causing a […] processes that more perfectly mimics the pathophysiological conditions observed in clinics, and (ii) affecting a controlled volume of nervous tissue. Moreover, the location of the lesion can be restricted to precise regions (three to four […]). The injury is created using a beam of a xenon lamp conveyed by fiberoptics on the selected vertebral site. The irradiation is performed over the translucent dorsal surface of the vertebral laminae. The green light (560 nm) induces the excitation of the previously injected dye (Rose Bengal) present in the spinal cord microvasculature. […]

[4] = cited from earlier work
[5] = adenosine 200 μg/kg/min or BIDOSINE (adenosine 100 + inosine 500 μg/kg/min)
[6] = adenosine 200 μg/kg/min or BIDOSINE (adenosine 100 + inosine 500 μg/kg/min), listed as Adenosine

Nc1ncnc2c1ncn2[C@@H]1O[C@H](CO)[C@@H](O)[C@H]1O [adenosine]
Cardiac output (co), mean (sheep [1]; [5]): 4943
Central venous pressure (CVP), mean (sheep [1]; [5]): 9.4875
Coronary flow (cf), mean (sheep [1]; [5]): 129.55
Heart rate (HR), mean (sheep [1]; [5]): 90.6375
Left ventricular dP/dtmax (contractility) (dpmax), mean (sheep [1]; [5]): 1077.714
Left ventricular dP/dtmin (relaxation) (dpmin), mean (sheep [1]; [5]): worsened significantly more
Mean arterial blood pressure (ABPm), mean (sheep [1]; [5]): decreased significantly more
Mean pulmonary arterial pressure (pupm), mean (sheep [1]; [5]): 16.425
Systolic left ventricular pressure (LVPsys), mean (sheep [1]; [5]): decreased significantly more
Left ventricular dP/dtmin (relaxation) (dpmin), mean (sheep [1]; [6]): −821.286
Mean arterial blood pressure (ABPm), mean (sheep [1]; [6]): 43.2625
Systolic left ventricular pressure (LVPsys), mean (sheep [1]; [6]): 59.35
left ventricular relaxation constant (Tau) compared with baseline (sheep [1]; adenosine at adenosine max or BIDOSINE A:I 1:5, ANOVA p=0.001): significantly shorter
coronary blood flow (sheep [1]; continuous i.v. infusion, adenosine 200 μg/kg/min or BIDOSINE (100 + 500 μg/kg/min)): 129.5 cms/sec
optimal single agent adenosine dose, ensuring the highest coronary flow (adenosine max) (sheep [1]; from the first three animal experiments): 200 µg/kg/min
Regional blood flow, left ventricle endocardial half (Lvendo), mean (sheep [2]): 1.763 ml/min/g tissue (wet weight)
Regional blood flow, left ventricle epicardial half (Lvepi), mean (sheep [2]): 2.039 ml/min/g tissue (wet weight)
Regional blood flow, right ventricle endocardial half (RVendo), mean (sheep [2]): 2.227 ml/min/g tissue (wet weight)
Regional blood flow, right ventricle epicardial half (RVepi), mean (sheep [2]): 1.728 ml/min/g tissue (wet weight)
Regional blood flow, left ventricle endocardial half (Lvendo), mean (sheep [2]; listed as Adenosine): 1.764 ml/min/g tissue (wet weight)
left ventricular EF (LVEF) (male Wistar rats): 45%
EDV (male Wistar rats; n=5 per group): 0.47
ESV (male Wistar rats; n=5 per group): 0.26
LVEF (male Wistar rats; n=5 per group): 0.45
behavioral recovery (motor, sensory and reflex scores), all tested functions ([3]; BIDOSINE 1:5 (adenosine 0.05 + inosine 0.25 mg/kg/min) or adenosine 0.1 mg/kg/min i.v. after injury, follow-up to day 10): best efficacy until day 4
gross and fine motor functional outcomes (open field, inclined plane, grid navigation) ([3]; compared to saline controls, to day 10, two way ANOVA p<0.001): Statistically significant improvements over control
half life [4]: several seconds
